Source: US10168317B2, “Microfluidic device, system, and method for tracking single cells and single cell lineages” (CORNELL UNIVERSITY, priority 2012, dated 2019)
“And” between values parts separate entries of the source, which are not always exact repeats. Identical values can stand only once. “Also recorded” adds a separate entry of the source.

Experiments:
[1] = tested on: cells; conditions: straight confinement microchannels; cited from earlier work
[2] = tested on: cell invasion; conditions: together with protease inhibitors; cited from earlier work
[3] = tested on: MDA-MB-231 cells; test: MUSIC device: cell migration in the larger channel LC (speed, mean-squared displacement); assay type: cell-based, human
Description: (§1) MDA-MB-231 cells were obtained from the NCl PS-OC and the ATCC. They were cultured in Leibovitz L-15 media (Life Technologies) supplemented with 10% fetal bovine serum (Atlanta Biologicals) and 1% Penicillin-Streptavidin (Life Technologies). K20T cells were obtained from the Giannakakou lab at Weill Cornell Medical College. They are a taxol-resistant derivative of MDA-MB-231 cells (K. M. Wiesen et al., Cancer Letters, 2007, 257, 227-235). They were cultured in L-15 media supplemented with 10% fetal bovine serum, 1% Penicillin-Streptavidin, and 15 nM paclitaxel (taxol) (Cytoskeleton, Inc). All cells were incubated at 37° C. without supplemented CO2.
Cells were loaded into the inlet reservoir regions at the ends of the microchannels and allowed to spontaneously migrate into the three-dimensionally confined channels. Devices with cells were incubated as in regular cell culture as described above. Timelapse experiments were performed once the cells were in the channels. For each experiment, devices were placed on top of a heating plate maintained at 37° C. Typical durations for timelapse experiments were around 1-2 days at a temporal resolution of 3.4 minutes. Cell tracking and measurements were performed by manual tracing via ImageJ. Data processing and analysis were performed via custom programs on MATLAB. The height of the microchannels used for all experiments with quantitative analysis was 10 μm. […] Standard DAPI staining was used for fluorescence imaging in FIG. 9. […]
To develop an assay that can directionally focus the cell invasion program for high throughput quantitative analysis, we designed and fabricated a microfluidic device that induces serial dimensional modulation on the cell and nucleus scale (FIG. 3). […] Because the migration vector points in one direction (x) and the primary induced region of change is in the orthogonal direction (y), high throughput quantitative analysis can now be accomplished in 1-D, thus increasing the feasibility of experiments and enabling predetermined axes of interest. […]

[4] = tested on: MDA-MB-231 cells; test: Single-cell lineage drug response in parallel microfluidic channels; assay type: cell-based, human; conditions: 1 nM Paclitaxel, constant treatment, day 2 and day 6, about one week
Description: FIG. 26 illustrates breast cancer cells treated with 1 nM Paclitaxel at day 2 (top) and day 6 (bottom) from initial treatment, as observed in one embodiment of a microfluidic device/microfluidic system of the present invention. […] The emergence of drug resistance can therefore be identified at the single-cell and single-cell lineage level, which can provide better biological resolution and can identify the onset of resistance more quickly especially if only a rare subpopulation of the bulk cells is resistant.
To move forward, we will expand these studies to distinguish the difference in drug responsivity between individual cell lineages enabled by our cell isolation technique previously described, and we will extend the time-scale of these experiments to accommodate for the emergence of drug resistance.

[5] = tested on: MDA-MB-231 metastatic breast cancer cells; test: Cell morphology after taxol treatment in the microfluidic device; assay type: cell-based, human
Source text: FIGS. 29A-29B illustrate cancer cells treated with the chemotherapeutic taxol in embodiments of a microfluidic device and system of the present invention. […] FIG. 29B: This more extended morphology from taxol-treated cells after failed mitosis resembles the morphology of K20T cells, which are the taxol-resistant variant of the MDA-MB-231 cells.
FIGS. 29A-29B show cancer cells treated with the chemotherapeutic taxol in embodiments of a microfluidic device and system of the present invention. […] They also lose the ability to divide properly, resulting in an extensive blebbing phase followed by cytoskeletal recovery. After failed mitosis and recovery, the cells take on a different, more extended morphology, typically with more edges and extensions. This new morphology resembles the taxol-resistant variant of these cells. […] For timelapse stacks, 34 minutes elapsed between each frame.

[6] = tested on: MDA-MB-231 cells; test: Serial micropipette: pressure-driven transit across sequential subnucleus-scaled constrictions; assay type: cell-based, human; conditions: 10 μM taxol for 1 day
Description: MDA-MB-231 cells were obtained from the NCl Physical-Sciences and Oncology Center. They were cultured in Leibovitz L-15 media (Life Technologies) with 10% fetal bovine serum (Atlanta Biologicals) and 1% Penicillin-Streptavidin (Life Technologies) at 37° C. without CO2.
Devices were treated with 1% bovine serum albumin (BSA) (Sigma-Aldrich) in serum-free media (L-15) for several hours before experiments in order to prevent stiction. Additionally, cells used in experiments were resuspended in serum-free media. Cells were loaded into the inlet reservoir of the device and experiments were automatically conducted as described in the design and operations section of this paper. The device was placed and kept on a heating plate set at 37° C. Videos were recorded at 500 ms per frame under a microscope, which produced the data of the experiments. Experimental analysis and cell tracking were performed using ImageJ and custom MATLAB programs. For statistical analysis, one-way ANOVA was used to determine statistical significance. Error bars on data represent standard error of the mean (s.e.m.). For taxol experiments, cells were incubated in 10 μM taxol (Cytoskeleton, Inc.) for 1 day prior to experiments. For fluorescence experiments, NucBlue (a live nucleus counterstain that is formulated from Hoechst 33342) (Life Technologies) was used and cells were incubated in the dye in complete growth media for 15 minutes.
The device consists of parallel microchannels. Each channel contains a series of microconstrictions to serve as a serial micropipette capable of deforming objects multiple times via pressure driven flow. The larger region of the channel has a width of 15 μm, which is on the order of the size of a cell. The smaller constriction region is 3.3 μm, which is smaller than the cell nucleus, thus ensuring that the cell undergoes a substantial deformation that samples a key organelle in the cell that often limits cell squeezing in physiological landscapes due to its size and stiffness. […]

[7] = tested on: MDA-MB-231 cells; test: MUSIC device: cell invasion across subnucleus barriers (SNI), timelapse; assay type: cell-based, human; conditions: for ability to invade across subnucleus barriers / tight spaces: taxol (Paclitaxel)-treated MDA-MB-231 cells
Description: as §1
Cells were loaded into the inlet reservoir regions at the ends of the microchannels and allowed to spontaneously migrate into the three-dimensionally confined channels. Devices with cells were incubated as in regular cell culture as described above. Timelapse experiments were performed once the cells were in the channels. For each experiment, devices were placed on top of a heating plate maintained at 37° C. Typical durations for timelapse experiments were around 1-2 days at a temporal resolution of 3.4 minutes. Cell tracking and measurements were performed by manual tracing via ImageJ. Data processing and analysis were performed via custom programs on MATLAB. The height of the microchannels used for all experiments with quantitative analysis was 10 μm. […] For statistical analysis, the Chi-squared test was used for probability measurements, and ANOVA statistics were used for all other measurements, unless otherwise specified. Error bars are standard error of the mean (s.e.m.). Standard DAPI staining was used for fluorescence imaging in FIG. 9. For cell viability in these devices, we found in a typical timelapse experiment of ˜23 hrs that less than 10% (5 out of 54) of the cells died while occupying the experimental field of view.
To develop an assay that can directionally focus the cell invasion program for high throughput quantitative analysis, we designed and fabricated a microfluidic device that induces serial dimensional modulation on the cell and nucleus scale (FIG. 3). We refer to this herein as a MUlti-staged Serial Invasion Channels (MUSIC) device. […] Then we incorporate a spatially tapering interface that connects the confinement channel to another even smaller channel (referred to as the subnucleus barrier (SNB)) with width smaller than the cell nucleus, which is one of the largest and stiffest organelles in the cell (P. Friedl et al., Current Opinion in Cell Biology, 2011, 23, 55-64). […] This device design in essence directs and reduces the 3-D invasion program into a 2-component process—1) the cell migrates in the x-direction while 2) necessarily altering its y-dimensions. Because the migration vector points in one direction (x) and the primary induced region of change is in the orthogonal direction (y), high throughput quantitative analysis can now be accomplished in 1-D, thus increasing the feasibility of experiments and enabling predetermined axes of interest. Furthermore, repeating patterns of the subnucleus barrier are placed along the length of the microchannel, enabling serial effects and multiple sampling of individual cells, therefore providing a way to elucidate the plasticity of mechanisms of invasion for each cell. In our experiments, we consider both 1) cell invasion in only the larger confinement channel region (referred to as LCI) and 2) invasion from the larger channel across the subnucleus barrier (referred to as SNI). Our device design incorporates two different lengths for the SNB—10 μm (SNB10) and 60 μm (SNB60), which are shorter and longer than a typical MDA-MB-231 cell, respectively.
To understand higher order effects of cell invasion, we first identified the nonlinearity in the cell displacement function during SNI. Then we segmented the process into 4 distinct phases and measured the time constants of each phase. […]

| SMILES | effect on migration rates in confinement [1] | effect on cell invasion in combination with protease inhibitors [2] | factor of difference in average cell speed between treated and untreated cells ([3]; larger channel region LC, 16 μM taxol) | power-law exponent of mean-squared displacement vs. time (MSD ∝ t^x) ([3]; taxol-treated MDA-MB-231 cells in larger channel LC, n=10 cells, non-linear least squares fit) | average speed in the larger channel LC ([3]; taxol-treated MDA-MB-231 cells, 16 μM (printed 1604), 3.4 minute time interval, n=10) [μm/min] | viability and proliferation of single-cell lineages under drug [4] | cell morphology after failed mitosis ([5]; taxol-treated cells after failed mitosis and recovery) | cell morphology after treatment ([5]; taxol-treated cells before failed mitosis) | transit time across the first constriction ([6]; 10 μm-long constriction, about 400 pa, n=26) [s] | transit times across subsequent constrictions, taxol treated vs untreated cells ([6]; constrictions 2 to 5) | cell length in the microchannel (cell size) ([6]; n=26) [μm] | total invasion time across subnucleus barrier SNB10 ([7]; 16 µM) [h] | factor of difference in total SNI time, treated vs untreated cells ([7]; barrier 10 μm long, 16 μM taxol) | ability to invade across subnucleus barriers / tight spaces [7] | ability to invade across subnucleus barriers / tight spaces ([7]; listed as Paclitaxel) | total invasion time across subnucleus barrier SNB10 ([7]; taxol-treated MDA-MB-231 cells, 16 μM taxol (printed 1604), 10 μm long barrier, lower-bound measurement, many cells not permeated by end of experiment) [h] | total invasion time across subnucleus barrier SNB60 ([7]; taxol-treated MDA-MB-231 cells, 16 μM taxol (printed 1604), 60 μm long barrier, lower-bound measurement) [h] |
| --- | --- | --- | --- | --- | --- | --- | --- | --- | --- | --- | --- | --- | --- | --- | --- | --- | --- |
| COC(=O)Nc1nc2ccc(C(=O)c3cccs3)cc2[nH]1 [Nocodazole] | migration rates are affected |  |  |  |  |  |  |  |  |  |  |  |  |  |  |  |  |
| C[C@@H](N)[C@H]1CC[C@H](C(=O)Nc2ccncc2)CC1 [Y27632] |  | synergistic effects in preventing cell invasion |  |  |  |  |  |  |  |  |  |  |  |  |  |  |  |
| CC(=O)O[C@H]1C(=O)[C@@]2(C)[C@H]([C@H](OC(=O)c3ccccc3)[C@]3(O)C[C@H](OC(=O)[C@H](O)[C@@H](NC(=O)c4ccccc4)c4ccccc4)C(C)=C1C3(C)C)[C@]1(OC(C)=O)CO[C@@H]1C[C@@H]2O [taxol, paclitaxel] | migration rates are affected |  | ~2 | 1 and 1.014 | 0.53 | many cells underwent apoptosis but a select lineage continues to propagate; also recorded: many other cells in other channels underwent apoptosis after failed cell division | recover a more extended morphology | less extended, more rounded morphology | 550 ± 109 | transit times collapse between the two cell groups | 31±2 | ≥ 22 | > 20 | reduced ability in invading across tight spaces | can no longer invade | > 20 | ≥ 22 |
